{"source": "paper PMC4893628", "about": "“Chalcone-based Selective Inhibitors of a C4 Plant Key Enzyme as Novel Potential Herbicides” (Scientific Reports, 2016)", "key": {"Bacillus subtilis 168": {"tested_on": "Bacillus subtilis 168", "assay": "Bacterial growth in microscale cultivation, B. subtilis", "type": "cell-based", "conditions": "for activity at 8 µM / activity at 80 µM / activity at 800 µM / activity at 160 µM / Lag Phase: relative to control", "procedure": "(§1) The following bacteria were cultivated in the presence of trans-chalcone derived inhibitors: Corynebacterium glutamicum ATCC13032[43], Escherichia coli K-12 MG1655[44], Pseudomonas putida KT2440[45], and Bacillus subtilis 168[46]. The growth of these bacteria was monitored in flower-well plates shaken at 1200 rpm as backscatter at 620 nm (gain 20) using a BioLector® microscale cultivation system (m2p labs, Baesweiler, Germany). For further experimental details please refer to the Supplementary Information.\n(§2) medium or the appropriate minimal medium and shaken at 140 rpm overnight. For inoculation of\n(§3) the main culture, cells equivalent to an optical density at 600 nm of 0.5 (C. glutamicum, E. coli,\n(§4) and P. putida) or 0.25 (B. subtilis) in 800 µL medium were washed and resuspended in fresh\n(§5) media. Inhibitor substances were dissolved in DMSO and added to the media to a final\n(§6) Since the least polar trans-chalcone and 2’-hydroxychalcone precipitated in the growth media at\n(§7) the highest concentrations, the maximal concentration of these compounds was reduced to 400\n(§8) µM and 100 µM, respectively. The final backscatter at 620 nm, the growth rate (h-1), and the\n(§9) duration of the lag phase of all cultures were determined in a BioLector microscale cultivation\n(§10) system in comparison to negative controls supplemented with the solvent DMSO. A longer lag"}, "Amaranthus retroflexus": {"tested_on": "Amaranthus retroflexus", "assay": "In planta growth experiment, A. retroflexus", "type": "in vivo", "conditions": "shoots sprayed, 3 mM", "text": "Seeds of Amaranthus retroflexus L. (Herbiseed, Twyford, UK) and Brassica napus L. cv. Mozart (Norddeutsche Pflanzenzucht Hans-Georg Lembke KG, Holtsee, Germany) were sown in vermiculite for germination. When cotyledons were fully expanded, seedlings were transplanted into plastic pots with a volume of 0.230 L filled with a substrate containing 50% bottom ash (0–4 mm), 30% peat and 20% pumice gravel (0–4 mm). Plants were watered every other day with 0.03% Hakaphos® Grün solution (Compo Expert GmbH, Münster, Germany) by sub-irrigation. Plants were grown in a climate chamber at 22 °C/20 °C day/night temperature and a day/night length of 16 h/8 h. Relative humidity was adjusted to 70% and light intensity was 320 μmol m^−2 s^−1 PAR (Photosynthetically Active Radiation) at plant level.\nWhen seedlings reached the two-leaf growth stage, plant shoots were sprayed from the top with treatment solutions using spray bottles with a spraying angle of 35° (10 ml, neoLab Migge Laborbedarf-Vertriebs GmbH, Heidelberg, Germany). Treatment solutions were applied from a height of 8.5 cm above the pots. Each pot was sprayed once with a solution volume of 0.135 ml. Treatment solutions contained 2.4% (v/v) DMSO (dimethylsulfoxide, Duchefa Biochemie, Haarlem, the Netherlands), 0.1% (v/v) Tween® and the respective compound at a concentration of 3 mM. The control treatment contained 2.4% (v/v) DMSO, and 0.1% (v/v) Tween20. Further details are given in the Supplementary Information. […]\nExperimental design and assessments of in planta experiments\nWe tested eleven compounds in a first experiment. In a follow-up experiment we tested selected […]\nchalcone. Each treatment was repeated 12 times, except for oilseed rape in the second experiment (n=10). Pots were arranged in the growth chamber according to a fully randomized design. Initial growth of the second leaf of A. retroflexus plants was monitored by aquiring images of each plant from above from day zero to day two after treatment. Images were taken […]\nfrom a fixed distance at 90° view angle using the camera Canon EOS 70D equipped with a Canon EF 14 mm/2.8 L II USM lens. Leaf area of single leaves was measured using the ImageJ software31, by drawing the leaf contours using a drawing tablet (Cintiq 22HD, Wacom Europe GmbH, Krefeld, Germany). Conversion of pixel to cm was achieved by using a target of known size inside the image. Six days after the treatment, half of the plants were harvested. Leaf area was assessed using a leaf area meter (LI3100C Area Meter, LI-Cor, Lincoln, Nebraska, USA) and samples were oven-dried at 65°C for seven days to obtain dry weight . Thirteen days after the treatment, this procedure was repeated with the second half of plants.\nChlorophyll fluorescence measurements […]\n6 mm leaf discs were cut out of the second leaf and immediately placed into 96-well-plates filled with 300 µL 0.125 % Hoagland’s solution with 1 mM MES-KOH (MES-monohydrate, Merck, Darmstadt, Germany) buffered to a pH of 6.5. The treatment solution contained 1.6 % (v/v) DMSO, 0.1 % (v/v) Tween® 20 and 2',3',4',3,4-Pentahydroxychalcone at a concentration of 2 mM. The control treatment contained 1.6 % (v/v) DMSO, 0.1 % (v/v) Tween® 20. Each leaf disc was treated with 1.5 µL solution placed on top of the leaf discs. Plates were sealed with Parafilm and placed into a climate cabinet with 12h/12h day/night-length and a temperature of 22°C at a light intensity of 130 µmol m-2 s-1. 96 hours after treatment, chlorophyll fluorescence measurements were performed on leaf discs using an Imaging PAM M-Series fluorescence camera (Heinz Walz GmbH, Effeltrich, Germany). Leaf discs were dark adapted for 30 minutes, minimum and maximum chlorophyll fluorescence were obtained and leaf discs were illuminated for 30 minutes"}, "[1]": {"tested_on": "Pseudomonas putida KT2440", "assay": "Bacterial growth in microscale cultivation, P. putida", "type": "cell-based", "conditions": "relative to control; for activity at 8 µM / activity at 80 µM / activity at 400 µM: Pseudomonas putida", "procedure": "as §1, §2, §3, §4, §5, §6, §7, §8, §9, §10"}}, "note": "Where two headings read alike, the source gives them in different places.", "data": [{"smiles": "O=C(/C=C/c1ccccc1)c1ccccc1", "note": "[Compound 1, trans-Chalcone]", "values": [{"measurement": "activity at 8 µM", "setting": "Bacillus subtilis 168; Bacillus subtilis, 168, complex medium, 8 µM, read-out: Final Backscatter", "value": 95.4, "unit": "%"}, {"measurement": "activity at 8 µM", "setting": "Bacillus subtilis 168; Bacillus subtilis, 168, complex medium, 8 µM, read-out: Growth rate", "value": 115, "unit": "%"}, {"measurement": "activity at 80 µM", "setting": "Bacillus subtilis 168; Bacillus subtilis, 168, complex medium, 80 µM, read-out: Final Backscatter", "value": 99, "unit": "%"}, {"measurement": "activity at 80 µM", "setting": "Bacillus subtilis 168; Bacillus subtilis, 168, complex medium, 80 µM, read-out: Growth rate", "value": 119, "unit": "%"}, {"measurement": "activity at 800 µM", "setting": "Bacillus subtilis 168; Bacillus subtilis, 168, complex medium, 800 µM, read-out: Final Backscatter", "value": 103, "unit": "%"}, {"measurement": "activity at 800 µM", "setting": "Bacillus subtilis 168; Bacillus subtilis, 168, complex medium, 800 µM, read-out: Growth rate", "value": 130, "unit": "%"}, {"measurement": "activity at 8 µM", "setting": "Bacillus subtilis 168; Bacillus subtilis, 168, minimal medium, 8 µM, read-out: Final Backscatter", "value": 89.6, "unit": "%"}, {"measurement": "activity at 8 µM", "setting": "Bacillus subtilis 168; Bacillus subtilis, 168, minimal medium, 8 µM, read-out: Growth rate", "value": 118, "unit": "%"}, {"measurement": "activity at 80 µM", "setting": "Bacillus subtilis 168; Bacillus subtilis, 168, minimal medium, 80 µM, read-out: Final Backscatter", "value": 88.8, "unit": "%"}, {"measurement": "activity at 80 µM", "setting": "Bacillus subtilis 168; Bacillus subtilis, 168, minimal medium, 80 µM, read-out: Growth rate", "value": 105, "unit": "%"}, {"measurement": "activity at 160 µM", "setting": "Bacillus subtilis 168; Bacillus subtilis, 168, minimal medium, 160 µM, read-out: Final Backscatter", "value": 89.5, "unit": "%"}, {"measurement": "activity at 160 µM", "setting": "Bacillus subtilis 168; Bacillus subtilis, 168, minimal medium, 160 µM, read-out: Growth rate", "value": 97.3, "unit": "%"}, {"measurement": "activity at 800 µM", "setting": "Bacillus subtilis 168; Bacillus subtilis, 168, minimal medium, 800 µM, read-out: Final Backscatter", "value": 83.6, "unit": "%"}, {"measurement": "activity at 800 µM", "setting": "Bacillus subtilis 168; Bacillus subtilis, 168, minimal medium, 800 µM, read-out: Growth rate", "value": 93.3, "unit": "%"}, {"measurement": "Influence on bacterial growth", "setting": "Bacillus subtilis 168; Minimal medium, highest concentration tested (10× IC50) if not stated otherwise", "value": "lag↑ (2× IC50)"}, {"measurement": "Lag Phase", "setting": "Bacillus subtilis 168; complex medium, 8 µM", "value": "103,5%"}, {"measurement": "Lag Phase", "setting": "Bacillus subtilis 168; complex medium, 80 µM", "value": "103,5%"}, {"measurement": "Lag Phase", "setting": "Bacillus subtilis 168; complex medium, 800 µM", "value": "101,2%"}, {"measurement": "Lag Phase", "setting": "Bacillus subtilis 168; minimal medium, 8 µM", "value": "111,6%"}, {"measurement": "Lag Phase", "setting": "Bacillus subtilis 168; minimal medium, 80 µM", "value": "109,9%"}, {"measurement": "Lag Phase", "setting": "Bacillus subtilis 168; minimal medium, 160 µM", "value": "110,6%"}, {"measurement": "Lag Phase", "setting": "Bacillus subtilis 168; minimal medium, 800 µM", "value": "121,3%"}, {"measurement": "Influence on plants", "setting": "Amaranthus retroflexus", "value": "No"}, {"measurement": "activity at 8 µM", "setting": "[1]; KT2440, complex medium, 8 µM, read-out: Final Backscatter", "value": 95.3, "unit": "%"}, {"measurement": "activity at 8 µM", "setting": "[1]; KT2440, complex medium, 8 µM, read-out: Growth rate", "value": 98.4, "unit": "%"}, {"measurement": "activity at 80 µM", "setting": "[1]; KT2440, complex medium, 80 µM, read-out: Final Backscatter", "value": 96.7, "unit": "%"}, {"measurement": "activity at 80 µM", "setting": "[1]; KT2440, complex medium, 80 µM, read-out: Growth rate", "value": 100, "unit": "%"}, {"measurement": "activity at 400 µM", "setting": "[1]; KT2440, complex medium, 400 µM, read-out: Final Backscatter", "value": 97.3, "unit": "%"}, {"measurement": "activity at 400 µM", "setting": "[1]; KT2440, complex medium, 400 µM, read-out: Growth rate", "value": 103, "unit": "%"}, {"measurement": "activity at 8 µM", "setting": "[1]; KT2440, minimal medium, 8 µM, read-out: Final Backscatter", "value": 94.4, "unit": "%"}, {"measurement": "activity at 8 µM", "setting": "[1]; KT2440, minimal medium, 8 µM, read-out: Growth rate", "value": 112, "unit": "%"}, {"measurement": "activity at 80 µM", "setting": "[1]; KT2440, minimal medium, 80 µM, read-out: Final Backscatter", "value": 94.2, "unit": "%"}, {"measurement": "activity at 80 µM", "setting": "[1]; KT2440, minimal medium, 80 µM, read-out: Growth rate", "value": 113, "unit": "%"}, {"measurement": "activity at 400 µM", "setting": "[1]; KT2440, minimal medium, 400 µM, read-out: Final Backscatter", "value": 100, "unit": "%"}, {"measurement": "activity at 400 µM", "setting": "[1]; KT2440, minimal medium, 400 µM, read-out: Growth rate", "value": 119, "unit": "%"}, {"measurement": "Lag Phase", "setting": "[1]; complex medium, 8 µM", "value": "100,6%"}, {"measurement": "Lag Phase", "setting": "[1]; complex medium, 80 µM", "value": "101,8%"}, {"measurement": "Lag Phase", "setting": "[1]; complex medium, 400 µM", "value": "103,0%"}, {"measurement": "Lag Phase", "setting": "[1]; minimal medium, 8 µM", "value": "98,9%"}, {"measurement": "Lag Phase", "setting": "[1]; minimal medium, 80 µM", "value": "99,3%"}, {"measurement": "Lag Phase", "setting": "[1]; minimal medium, 400 µM", "value": "98,1%"}]}]}
